How the values were obtained:
mouse Mfsd2a [1] = target: T1, mouse Mfsd2a (Mus musculus, UniProt Q9DA75); assay: TLC analysis of phospholipids (bio-incorporation of LPC into PC); type: cell-based; conditions: TLC
T1 construct: expressed in transfected cells; host or cells: HEK293
T1 sequence (Q9DA75 1-534): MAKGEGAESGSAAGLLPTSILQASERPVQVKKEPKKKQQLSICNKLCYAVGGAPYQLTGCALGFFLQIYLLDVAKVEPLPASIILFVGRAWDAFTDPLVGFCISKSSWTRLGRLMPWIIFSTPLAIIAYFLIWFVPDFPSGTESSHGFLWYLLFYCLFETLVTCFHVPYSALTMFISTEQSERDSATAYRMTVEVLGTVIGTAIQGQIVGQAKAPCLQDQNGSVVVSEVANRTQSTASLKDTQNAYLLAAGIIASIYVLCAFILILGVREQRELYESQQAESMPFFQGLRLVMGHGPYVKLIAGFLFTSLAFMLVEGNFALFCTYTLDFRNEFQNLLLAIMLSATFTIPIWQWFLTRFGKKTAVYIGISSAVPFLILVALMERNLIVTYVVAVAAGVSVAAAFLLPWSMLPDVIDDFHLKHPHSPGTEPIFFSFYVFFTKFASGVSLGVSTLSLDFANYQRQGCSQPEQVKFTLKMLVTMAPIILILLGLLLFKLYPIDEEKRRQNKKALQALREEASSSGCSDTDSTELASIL
Experimental: HEK293 cells overexpressing with pcDNA3.1Mfsd2a (WT), pcDNA3.1Mfsd2aD92A (D92A), pcDNA3.1Mfsd2aD96A, or pcDNA3.1 (mock) plasmids or human Mfsd2a (in Sport6 plasmid) were washed once with serum-free DMEM medium before incubation with 50 μM radiolabeled LPC [^14C]oleate, LPC [^14C]DHA or with 50 μM TopFluor-LPC and NBD-LPC. Lipids were extracted twice with HIP buffer for 30 mins. Lipids were dried with nitrogen stream and reconstituted in chloroform and spotted on TLC plates (Milipore). Solvent for phospholipid separation was chloroform/methanol/ammonia solution (25%) (50:25:6, per volume). TLC plates of radiolabeled phospholipids were dried for 30 mins and exposed overnight to Phosphorscreens and scanned with Typhoon FLA 9000 scanner (Agilent). TLC plates of fluorescent phospholipids were scanned with Typhoon FLA 9000 scanner and quantified using Imagequant software.

mouse Mfsd2a [2] = target: T1, mouse Mfsd2a; assay: In vitro transport (uptake) of radiolabeled and fluorescent LPCs in HEK293 cells overexpressing Mfsd2a; type: cell-based
Experimental: Uptake assays of radiolabeled LPCs or fluorescent LPCs were tested using HEK293 cells overexpressing Mfsd2a and mutants constructs. Briefly, HEK293 cells at 90-95% confluency were transfected using LIPOFECTAMINE 2000 (Invitrogen) with pcDNA3.1Mfsd2a (WT), pcDNA3.1Mfsd2aD92A (D92A), pcDNA3.1Mfsd2aD96A (D96A), or pcDNA3.1 (mock) plasmids. Uptake assays were performed after 24 hours of transfections. Prior to ligand incubation, HEK293 transfected cells were washed with serum-free DMEM before assays. For concentration and time dependent assays, radiolabeled LPCs were diluted in pre-warmed DMEM media. For sodium dependent assay, radiolabeled LPCs were diluted in transport buffer (5 mM KCl, 10 mM Hepes, pH 7.4) with 150 mM NaCl or 150 mM choline chloride. For sodium concentration dependent assays, any reductions in the concentration of NaCl were replaced by choline chloride in order to maintain a constant cation molarity of 150 mM. All assays were performed in 12 well-plates with triplicates and at 37° C.

[3] = Blood LPC [14C]-oleate analysis; type: in vivo, mice; conditions: intravenous, 2 hrs post-injection
Experimental: Mfsd2a KO and WT mice were injected intravenously with 100 μM radioactive labeled LPC [^14C]-oleate. 10 μl of blood samples were collected after 2 min (initial dose) and after 2 hr from tail vein, and radioactivity was quantified by scintillation counting. The amount of plasma LPC [^14C]-oleate in the KO mice was expressed as ratio to the WT at each time point.

Mfsd2a = target: T2, Mfsd2a (Mus musculus, UniProt Q9DA75); assay: In vivo transport of radiolabeled, fluorescent LPCs and unesterified DHA in Mfsd2a KO and wild-type mice; set-up: from tissue; host or cells: living mice; brain (blood-brain barrier endothelium), liver, heart; fetal brain; conditions: i.v. injection, 2 hrs post-injection, radiolabel
T2 sequence (Q9DA75 1-534): T1 sequence (Q9DA75 1-534)
Experimental: Male and female mice of age of 6-8 weeks were IV injected with 75 μl of 20 mM radiolabeled LPC-[…], 100 μl of 10 mM LPC-[^14C]DHA/BSA complex or 82 μl of 12.2 mM [^14C]DHA/BSA complex in a total volume of 150 μl of phosphate-buffered saline. At 2 hours post injection, mice were anesthetized and perfused for 5 mins with PBS containing 0.5% BSA in order to remove blood and lipid tracer bound to the brain vasculature. Tissues were harvested for lipid extraction. For lipid extraction, tissues were weighed and similar amounts of tissues were homogenized in chloroform/methanol. Lipids from the organic phase were mixed with scintillant and scintillation counted. Similar experiments were also performed with an injection of 300 μg NBD-LPC/BSA or 300 μg TopFluor-LPC/BSA complex per mouse. In this experiment, mice were perfused for 5 mins with PBS followed 15 mins perfusion with 4% paraformaldehyde (PFA) for tissue fixation. Brain sections of WT and KO with a thickness of 40 μm were prepared and scanned using green fluorescence mode in Typhoon FLA 9000 scanner (Agilent). NBD-LPC accumulation was expressed as fluorescence of each section per its area. Dietary DHA transport from mother to fetus was also measured using [^14C]DHA/BSA complex. Pregnant females at e18.5 was gavaged with bolus of [^14C]DHA/BSA complex (200 μl of 10 mM [^14C]DHA/BSA/mouse). Brain of fetuses were collected 20 hours post-gavage and weighed. Lipid extraction and radioactivity were performed as described above.

CCCCCCCCC=CCCCCCCCC(=O)OC[C@@H](O)COP(=O)([O-])OCC[N+](C)(C)C [LPC-[^14C]oleate, 1-oleoyl 2-lysophosphocholine]
net uptake of LPC ligand (PC mass) (mouse Mfsd2a [1]; 100 μM unlabeled LPC-oleate, 1 hour): Increased net uptake | conversion of transported LPCs into PCs (mouse Mfsd2a [1]; HEK293 cells expressing Mfsd2a, radiolabeled LPC): rapid conversion of transported LPCs into PCs | comparison of Mfsd2a-mediated uptake (capacity to transport) (mouse Mfsd2a [2]; HEK293 cells expressing Mfsd2a): highest capacity to transport LPC-DHA, followed by LPC-oleate, and LPC-palmitate | uptake of radiolabeled LPC by cells expressing Mfsd2a relative to control cells (mouse Mfsd2a [2]; HEK293 cells, wild-type Mfsd2a vs mock, LPC/BSA, 30 mins): concentration-dependent uptake | plasma level of injected tracer in KO mice relative to WT [3]: increased levels | brain uptake in KO mice relative to wild-type (Mfsd2a): markedly reduced
